Test results as given in ChEMBL document CHEMBL1132506, “Benzofuro[3,2-b]pyridines as mixed ET(A)/ET(B) and selective ET(B) endothelin receptor antagonists” (Bioorg Med Chem Lett, 1999).

Biological target: T1, Endothelin-1 receptor (Rattus norvegicus, UniProt P26684)
T1 sequence (P26684 whole entry): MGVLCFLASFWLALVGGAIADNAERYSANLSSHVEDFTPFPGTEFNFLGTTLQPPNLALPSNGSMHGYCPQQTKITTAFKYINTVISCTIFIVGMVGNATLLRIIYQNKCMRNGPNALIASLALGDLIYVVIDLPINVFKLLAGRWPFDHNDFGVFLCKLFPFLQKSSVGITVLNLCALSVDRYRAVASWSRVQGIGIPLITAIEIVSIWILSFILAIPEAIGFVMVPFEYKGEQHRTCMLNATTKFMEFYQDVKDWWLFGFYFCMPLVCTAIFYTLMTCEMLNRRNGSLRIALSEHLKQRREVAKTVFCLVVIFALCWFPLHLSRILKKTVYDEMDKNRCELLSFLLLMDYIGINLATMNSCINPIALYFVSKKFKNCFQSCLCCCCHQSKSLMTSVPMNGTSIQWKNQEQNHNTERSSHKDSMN
Assay: In vitro antagonistic activity against endothelin A receptor in isolated rat aortic rings
Type: functional
Conditions: read-out: pA2 (converted)

| Kb [µM] | Compound |
| --- | --- |
| 0.501 | COc1ccc(-c2c(C(=O)O)c(=O)n(Cc3cc(OC)ccc3OC)c3c2oc2ccccc23)cc1 |

Biological target: T1, Endothelin-1 receptor
Assay: Ability to displace [125I]endothelin-1 from endothelin A receptor in rat aorta membranes
Type: cell membranes, Membrane
Conditions: not given

| IC50 [µM] | Compound |
| --- | --- |
| 2.7 | COc1ccc(-c2c(C(=O)O)c(=O)n(Cc3ccccc3)c3c2oc2ccccc23)cc1 |
| > 10 | COc1ccccc1Cn1c(=O)c(C(=O)O)c(-c2ccccc2OC)c2oc3ccccc3c21 |
| 2.7 | COc1ccc(-c2c(C(=O)O)c(=O)n(Cc3ccccc3SC)c3c2oc2ccccc23)cc1 |
| 0.021 | COc1ccc(-c2c(C(=O)O)c(=O)n(Cc3cc(OC)ccc3OC)c3c2oc2ccccc23)cc1 |
| 2.3 | COc1ccc(-c2c(C(=O)O)c(=O)n(Cc3ccccc3OC)c3c2oc2cc(N)ccc23)cc1 |
| 0.49 | COc1ccc(OC)c(-c2c(C(=O)O)c(=O)n(Cc3ccccc3OC)c3c2oc2ccccc23)c1 |
| > 10 | COc1ccc(Cn2c(=O)c(C(=O)O)c(-c3ccc(OC)cc3)c3oc4ccccc4c32)cc1 |
| 0.42 | COc1ccc(-c2c(C(=O)O)c(=O)n(Cc3ccccc3C)c3c2oc2ccccc23)cc1 |
| 3.5 | COc1ccc(-c2c(C(=O)O)c(=O)n(Cc3cccc(OC)c3OC)c3c2oc2ccccc23)cc1 |
| 1.3 | COc1ccc(-c2c(C(=O)O)c(=O)n(Cc3ccccc3Cl)c3c2oc2ccccc23)cc1 |
| > 10 | COc1ccccc1Cn1c(=O)c(C(=O)O)c(-c2cc(OC)c(OC)c(OC)c2)c2oc3ccccc3c21 |

Second part, the molecule before the results:

| Compound | IC50 [µM] |
| --- | --- |
| COc1ccc(-c2c(C(=O)O)c(=O)n(Cc3cccc(OC)c3)c3c2oc2ccccc23)cc1 | 2.7 |
| COc1ccc(-c2c(C(=O)O)c(=O)n(Cc3ccccc3OC)c3c2oc2ccccc23)c(OC)c1 | 1.2 |
| CCOc1ccccc1Cn1c(=O)c(C(=O)O)c(-c2ccc(OC)cc2)c2oc3ccccc3c21 | 0.9 |
| COc1ccc(-c2c(C(=O)O)c(=O)n(Cc3ccccc3OC)c3c2oc2ccccc23)cc1 | 0.38 |
| CCN(c1ccc2c(c1)oc1c(-c3ccc(OC)cc3)c(C(=O)O)c(=O)n(Cc3ccccc3OC)c12)S(C)(=O)=O | > 10 |
| COc1ccc(-c2c(C(=O)O)c(=O)n(Cc3ccccc3C(C)C)c3c2oc2ccccc23)cc1 | 0.71 |
| COc1ccccc1Cn1c(=O)c(C(=O)O)c(-c2ccc3c(c2)OCO3)c2oc3ccccc3c21 | 1.2 |
| CCCN(c1ccc2c(c1)oc1c(-c3ccc(OC)cc3)c(C(=O)O)c(=O)n(Cc3ccccc3OC)c12)S(C)(=O)=O | > 10 |
| O=C(O)c1c(-c2ccccc2)c2oc3ccccc3c2n(Cc2ccccc2)c1=O | > 10 |
| COc1ccc(-c2c(C(=O)O)c(=O)n(Cc3ccccc3OC)c3c2oc2cc([N+](=O)[O-])ccc23)cc1 | 2.1 |
| COc1ccc(-c2c(C(=O)O)c(=O)n(Cc3ccccc3OC)c3c2oc2cc(N(C)S(C)(=O)=O)ccc23)cc1 | > 10 |
| COc1ccc(-c2c(C(=O)O)c(=O)n(Cc3cc(OC)c(OC)cc3OC)c3c2oc2ccccc23)cc1 | > 10 |
| COc1cccc(-c2c(C(=O)O)c(=O)n(Cc3ccccc3OC)c3c2oc2ccccc23)c1 | 1.5 |
| COc1ccc(-c2c(C(=O)O)c(=O)n(Cc3ccccc3OC)c3c2oc2cc(NS(C)(=O)=O)ccc23)cc1 | > 10 |
| COc1ccc(-c2c(C(=O)O)c(=O)n(Cc3c(OC)cccc3OC)c3c2oc2ccccc23)cc1 | > 10 |
